Results on three molecules are retold here after patent publication US20260306494A1, “LIQUID AND SOLID COMPOSITIONS OF IMIPRIDONE DERIVATIVES” (INSTITUT GUSTAVE ROUSSY, priority 2023, published 2026).

The conditions of series [1]: in vivo; cited from earlier work.
Another series deals with recurrent H3K28M DMG. Conditions: human, in vivo; cited from earlier work.
The nature of a further series: physchem. Conditions: water, solubility in water.

With `NC(=O)c1cccnc1` [Nicotinamide], the “NOAEL (No Observed Adverse Effect Level)” value in series [1] is on record as “around 200 mg/kg bw”.
Take `Cc1ccccc1CN1C(=O)C2=C(CCN(Cc3ccccc3)C2)N2CCN=C12` [ONC201, 7-Benzyl-4-(2-methylbenzyl)-1,2,6,7,8,9-hexahydroimidazo[1,2-a]pyrido[3,4-e]pyrimidin-5 (4H)-one]: the response of patients result in the series with recurrent H3K28M DMG is listed as “sustained response”.
For orientation: solubility means how much of the substance goes into solution per volume. In “physchem”, `Cc1ccccc1CN1C(=O)C2=C(CCN(Cc3ccccc3)C2)N2CCN=C12` [ONC201.2HCl] displayed a solubility of 41.4 mg/mL.
